Reference: PubChem BioAssay AID1981 (Southern Research Specialized Biocontainment Screening …, 2009)
Several values for one entry are separate records, joined by “and”; a condition that tells them apart may be missing. Identical values can stand only once.

Each compound was assayed on S. Typhimurium PhoP-promoter GFP reporter counterscreen, fluorescence, 4 h (assay: S. Typhimurium GFP fluorescence modified counterscreen for PhoP regulon inhibitor project dose response (AID 1981)).
`CN1/C(=C\C=C\C2=[N+](C)c3ccc4ccccc4c3C2(C)C)C(C)(C)c2ccccc21` gave an IC50 of 14.1 µM.
For `Cc1nnc(N/N=C/c2ccccn2)[nH]c1=O`, the IC50 was 21.2 µM.
`CC1COc2c(N3CCN(C)CC3)c(F)cc3c(=O)c(C(=O)O)cn1c23` (centres undefined) was tested, and the IC50 was 0.56 µM.
`Oc1c(I)cc(Cl)c2cccnc12` gave an IC50 of 70.7 µM.
Compound `COc1cccc(/C=N\NC(=O)Cn2nnc3ccccc32)c1O` has an IC50 of 75.1 µM.
`CN(C)c1ccc(O)c2c1CC1CC3C(N(C)C)C(=O)C(C(N)=O)=C(O)[C@@]3(O)C(=O)C1=C2O` (some centres undefined) showed an IC50 of 1.54 µM.
`CCN(CC)c1ccc(/C=N/Nc2nc3ccccc3[nH]2)c(O)c1` was tested, and the IC50 was 39.9 µM.
Work on `CCOC(=O)N1CCN(C(=O)c2cn(CC)c3cc(N4CCN(C)CC4)c(F)cc3c2=O)CC1` yielded an IC50 of 8.51 µM.
Compound `Nc1nonc1C(=O)N/N=C/c1cc(Br)ccc1O` has an IC50 of 13 µM.
With `O=C(CSc1nc2ccccc2s1)N/N=C/c1cc([N+](=O)[O-])ccc1O` the IC50 was 85.3 µM.
Work on `CCC(C)(C)c1ccc(OCCCC[n+]2ccc(C)cc2)c(C(C)(C)CC)c1` yielded an IC50 of 83.2 µM.
In the case of `CO[C@@]1(NC(=O)C2SC(=C(C(N)=O)C(=O)O)S2)C(=O)N2C(C(=O)O)=C(CSc3nnnn3C)CS[C@@H]21` (some centres undefined), the IC50 is reported as 21.7 µM.
For `NC1CCN(c2c(F)cc3c(=O)c(C(=O)O)cn(C4CC4)c3c2Cl)C1` (centres undefined), the IC50 was under 0.23 µM.
In the case of `CCCCCCCCCCCCCCCC[n+]1ccc(/C=N/O)cc1`, the IC50 is reported as 30.6 µM.
`CN1CCc2c(sc(NC(=O)c3ccc([N+](=O)[O-])o3)c2C(N)=O)C1` gave an IC50 of 33.7 µM.
With `c1ccc(-c2nnc(-c3ccccn3)nc2NC2CCCCC2)cc1` the IC50 was 148 µM.
Compound `C[CH2][Hg][S]c1ccccc1C(=O)O` has an IC50 of 28.1 µM.
With `CO[C@H]1/C=C/O[C@@]2(C)Oc3c(C)c(O)c4c(O)c(c(C=NN5CCN(C)CC5)c(O)c4c3C2=O)NC(=O)/C(C)=C\C=C\[C@H](C)[C@H](O)[C@@H](C)[C@@H](O)[C@@H](C)[C@H](OC(C)=O)[C@@H]1C` the IC50 was 10.3 µM.
For `O=C1C(=O)c2ccccc2-c2ccccc21`, the IC50 was 87.3 µM.
In the case of `C(=N\Nc1ccccn1)/c1cccnc1`, the IC50 is reported as 62.2 µM.
For `C=CC1=C(C(=O)O)N2C(=O)[C@@H](NC(=O)/C(=N/OCC(=O)O)c3csc(N)n3)[C@H]2SC1`, the IC50 was 17.9 µM.
`O=C(N/N=C/c1cc(Cl)ccc1O)c1cccnc1` showed an IC50 of 35 µM.
Work on `CCc1ccc(S(=O)(=O)/N=C2/C=C(Sc3ncn[nH]3)C(=O)c3ccccc32)cc1` yielded an IC50 of 138 µM.
`Oc1cccc(Nc2nc(NCC3CCCO3)c3ccccc3n2)c1` (centres undefined) showed an IC50 of 148 µM.
Compound `Oc1ccc(N=Cc2ccc(O)c(O)c2)cc1` has an IC50 of 67.6 µM.
Compound `CCN1/C(=C/C=C/C=C/c2sc3ccccc3[n+]2CC)Sc2ccccc21` has an IC50 of 23.6 µM.
For `O=C1c2ccccc2NC(c2ccc(-c3ccc(Br)cc3)o2)N1O` (centres undefined), the IC50 was 53 µM.
In the case of `Oc1ccc(/C=N/Nc2ncc(Br)cn2)c(O)c1`, the IC50 is reported as 128 µM.
`O=Nc1ccc(O)c2ncccc12` showed an IC50 of 41.4 µM.
In the case of `Oc1c(Cl)cc(Cl)c2cccnc12`, the IC50 is reported as 17.9 µM.
In the case of `CCNC(=S)NNC(=O)c1ccccn1`, the IC50 is reported as 33.7 µM.
For `COC(=O)C1C(O)C(C)C(O)C(C)/C=C\C=C(/C)C(=O)Nc2c(C)c(OC(C)=O)c3c(c2O)C(=O)C(C)=C2OCOC(=C23)/C(C)=C/C(C)(O)C(O)C(C)C1O` (centres undefined), the IC50 was 23.5 µM.
For `O=C(N/N=C/c1ccc([N+](=O)[O-])s1)C(O)c1ccccc1` (centres undefined), the IC50 was 68.4 µM.
Compound `Cc1ccc(S(=O)(=O)/N=C2/C=C(Sc3ncn[nH]3)C(=O)c3ccccc32)cc1` has an IC50 of 36.6 µM.
In the case of `Fc1ccc(CCNCc2ccc(Cl)c(Cl)c2)cc1`, the IC50 is reported as 109 µM.
Work on `CCOC(=O)C1=Nc2ccccc2C1=[N+]=[N-]` yielded an IC50 of 50 µM.
Compound `C#CCOCCOCCOCCNc1nc(N2CCN(C(=O)CCCCCCCCCCNC(=O)[C@H](CO)n3cc(CCCCCN)nn3)CC2)nc(N2CCN(C(=O)CCCCCCCCCCNC(=O)[C@H](CCCN=C(N)N)n3cc(C[C@@H](C)CC)nn3)CC2)n1` has an IC50 of 90.3 µM.
Compound `O=C(N/N=C/c1cc([N+](=O)[O-])ccc1O)c1ccncc1` has an IC50 of 101 µM.
For `C[C@H]1COc2c(N3CCN(C)CC3)c(F)cc3c(=O)c(C(=O)O)cn1c23`, the IC50 was under 0.23 µM.
With `CCCCCCCCCCOC(=O)Cn1c(COc2ccc(OC)cc2)[n+](C)c2ccccc21` the IC50 was 36.5 µM and 36.1 µM.
`O=C(N/N=C/c1cccc([N+](=O)[O-])c1O)c1cccs1` showed an IC50 of 20.4 µM.
`O=C1C=C(O)c2c(O)cc(O)c(O)c2C1=O` gave an IC50 of 69.4 µM.
`Cc1nc(N)nc(N)c1/C=C/C(C)(C)c1ccc(Cl)cc1` was tested, and the IC50 was 12.9 µM.
Compound `O=S1(=O)N=C(N/N=C/c2ccccn2)c2ccccc21` has an IC50 of 29.1 µM.
Compound `CCCCCCCCNC(C)C(O)c1ccc(SC(C)C)cc1` (centres undefined) has an IC50 of 121 µM.
`Cc1ccc(-c2csc(NC(=O)C[n+]3cc(-c4ccc(C)cc4)n4c3CCC4)n2)cc1` was tested, and the IC50 was 45.2 µM.
`Cc1ccc(Nc2nc(NCc3ccco3)c3ccccc3n2)cc1` gave an IC50 of 23.6 µM.
`COC(=O)c1c(NC(=O)c2ccc([N+](=O)[O-])o2)sc2c1CCN(C(C)C)C2` was tested, and the IC50 was 55.8 µM.
In the case of `COc1c(N2CCN(C(=S)NCc3ccccc3)C(C)C2)c(F)cc2c(=O)c(C(=O)O)cn(C3CC3)c12` (centres undefined), the IC50 is reported as 31.9 µM.
`O=C(N/N=C/c1c[nH]c2ccccc12)c1cc(-c2ccc3ccccc3c2)n[nH]1` was tested, and the IC50 was 68.6 µM.
Work on `COc1ccc(C(=O)Cn2nc(CNc3ccc(Br)cc3)[n+]3c2CCCCC3)cc1` yielded an IC50 of 106 µM.
`CCCCCCCCCC[N+](C)(C)CC/C=C1/c2ccccc2Sc2ccc(Cl)cc21` gave an IC50 of 40 µM.
Work on `O=C1OC(/C(=C\Nc2ccc(F)cc2F)[N+](=O)[O-])c2ccccc21` (centres undefined) yielded an IC50 of 18.2 µM.
`O=[N+]([O-])c1cc(F)c2cccnc2c1O` was tested, and the IC50 was 9.5 µM.
`Oc1ccc(/C=N/Nc2nccnc2Cl)c(O)c1` showed an IC50 of 63.2 µM.
For `OCCNCc1c(OCc2ccc(Cl)cc2)ccc2ccccc12`, the IC50 was 105 µM.
In the case of `Cc1sc2ncnc(N/N=C/c3ccccc3O)c2c1C`, the IC50 is reported as 69.2 µM.
`CC(=O)Oc1cc2cccc(OC(C)=O)c(=O)c2c(OC(C)=O)c1OC(C)=O` gave an IC50 of 17.7 µM.
With `Cc1ccc(S(=O)(=O)Nc2cc(Cl)c(O)c3ncccc23)cc1` the IC50 was 37.5 µM.
In the case of `CO[C@H]1C=CO[C@@]2(C)Oc3c(C)c(O)c4c(O)c(c(C=NN5CCN(C)CC5)c(O)c4c3C2=O)NC(=O)C(C)=CC=C[C@H](C)[C@H](O)[C@@H](C)[C@@H](O)[C@@H](C)[C@H](OC(C)=O)[C@@H]1C`, the IC50 is reported as 11.2 µM.
`COc1ccccc1CNCC(O)Cn1c2ccccc2c2ccccc21` (centres undefined) was tested, and the IC50 was 88.7 µM.
Work on `CCC(C)N1CCC2(CC1)N=c1c(c3c4c5c(C)c(O)c3c(O)c1=NC(=O)C(C)=CC=C[C@H](C)[C@H](O)[C@@H](C)[C@@H](O)[C@@H](C)[C@H](OC(C)=O)[C@H](C)[C@@H](OC)C=CO[C@@](C)(O5)C4=O)N2` (some centres undefined) yielded an IC50 of 3.03 µM.
Compound `COc1c(N2CCN(C(=S)Nc3ccc(F)cc3)C(C)C2)c(F)cc2c(=O)c(C(=O)O)cn(C3CC3)c12` (centres undefined) has an IC50 of 2.68 µM.
`CCCC(=O)NC(c1cccs1)c1cc([N+](=O)[O-])c2cccnc2c1O` (centres undefined) gave an IC50 of 30.1 µM.
`NC(=NCCCCCCN=C(N)/N=C(\N)Nc1ccc(Cl)cc1)/N=C(\N)Nc1ccc(Cl)cc1` was tested, and the IC50 was 9.12 µM and 9.93 µM and 9.09 µM.
Compound `O=C1c2ccccc2C(=O)c2[nH]c(=O)[nH]c21` has an IC50 of 6.53 µM.
With `N=C(N)SCc1cn(-c2ccccc2)nc1-c1ccc(Br)cc1` the IC50 was 36.1 µM.
In the case of `CCCCCCCCCCCCCCCCn1cc[n+](C)c1`, the IC50 is reported as 13 µM.
In the case of `COc1cccc(/C=N/Nc2ncc(C(F)(F)F)cc2Cl)c1O`, the IC50 is reported as 34.7 µM.
For `CCOc1ccc(Nc2nc(N)c3ccccc3n2)cc1`, the IC50 was 109 µM.
For `CN(C)c1ccc(/C=C/c2ccc3ccccc3[n+]2C)cc1`, the IC50 was 26.9 µM.
For `O=C(N/N=C/c1cc2c3c(c1O)CCCN3CCC2)c1ccccc1O`, the IC50 was 135 µM.
`Oc1ccc(CN2CCCc3ccccc32)c2cccnc12` was tested, and the IC50 was 20 µM.
`CN(C)[C@@H]1C(=O)C(C(N)=O)=C(O)[C@@]2(O)C(=O)C3=C(O)c4c(O)cccc4[C@@](C)(O)C3[C@H](O)C12` (some centres undefined) was tested, and the IC50 was 1.34 µM.
